Measured values: patent publication US20240158446A1, “CYCLIC COMPOUND HAVING SELECTIVE INHIBITORY ACTION ON KRAS OVER HRAS AND NRAS” (CHUGAI SEIYAKU KABUSHIKI KAISHA, priority 2021, published 2024)

What was measured:
[1] = target: GDP-bound KRAS wild-type protein (Homo sapiens, UniProt P01116); assay: Binding to KRAS by surface plasmon resonance (SPR), Single Cycle Kinetics; settings: SPR, Single Cycle Kinetics, GDP-bound KRAS wild-type protein; read-out: KRAS KD
[2] = target: GDP-bound NRAS wild-type protein (Homo sapiens, UniProt P01111); assay: Binding to NRAS by surface plasmon resonance (SPR), Single Cycle Kinetics; settings: SPR, GDP-bound NRAS wild-type protein vs GDP-bound KRAS wild-type protein
GDP-bound NRAS wild-type protein, sequence (P01111 whole entry): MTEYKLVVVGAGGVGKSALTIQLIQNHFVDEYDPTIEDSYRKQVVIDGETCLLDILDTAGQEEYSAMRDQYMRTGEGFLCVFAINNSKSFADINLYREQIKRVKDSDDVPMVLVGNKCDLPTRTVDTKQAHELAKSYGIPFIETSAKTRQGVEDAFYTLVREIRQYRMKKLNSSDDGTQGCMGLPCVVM

[3] = target: GDP-bound HRAS wild-type protein (Homo sapiens, UniProt P01112); assay: Binding to HRAS by surface plasmon resonance (SPR), Single Cycle Kinetics; settings: SPR, GDP-bound HRAS wild-type protein vs GDP-bound KRAS wild-type protein
GDP-bound HRAS wild-type protein, sequence (P01112 whole entry): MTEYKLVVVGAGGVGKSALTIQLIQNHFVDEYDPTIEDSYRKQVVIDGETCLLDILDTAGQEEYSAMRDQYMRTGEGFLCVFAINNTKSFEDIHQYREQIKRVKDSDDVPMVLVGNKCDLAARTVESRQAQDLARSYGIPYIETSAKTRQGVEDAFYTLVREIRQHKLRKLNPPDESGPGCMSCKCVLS

[4] = tested on: human lung cancer strain NCI-H441;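 also: cell proliferation inhibition after four days measured by CellTiter-Glo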

GDP-bound KRAS wild-type protein, sequence (P01116 whole entry): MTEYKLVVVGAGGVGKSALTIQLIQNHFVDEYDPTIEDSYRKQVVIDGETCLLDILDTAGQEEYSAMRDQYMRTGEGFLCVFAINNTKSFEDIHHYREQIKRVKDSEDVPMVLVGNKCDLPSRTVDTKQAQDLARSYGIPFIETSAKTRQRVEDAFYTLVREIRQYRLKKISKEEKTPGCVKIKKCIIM

SMILES	Kd [1] [nM]	IC50 [4] [nM]	NRAS/KRAS (ratio of KD value for NRAS to KD value for KRAS) [2]	HRAS/KRAS (ratio of KD value for HRAS to KD value for KRAS) [3]
CCCO[C@H](C)[C@@H]1NC(=O)[C@H](COCC)N(C)C(=O)C[C@@H](C(=O)N(C)CC)N(C)C(=O)[C@H](C2CCCC2)N(C)C(=O)C2(CC(C)(C)C2)NC(=O)[C@@H]2C[C@H](C)CN2C(=O)[C@H](CCc2ccc(C(F)(F)F)c(OC)c2)NC(=O)CN(C)C(=O)[C@H](Cc2ccc(C)cc2)N2CC/C=C\C[C@@H](C2=O)N(C)C(=O)CN(C)C1=O [PP2425]	0.23	51.7	AA (a compound having 20 or more is denoted as AA)	A (a compound having 10 or more and less than 20 is denoted as A)
CCCO[C@H](C)[C@@H]1NC(=O)[C@H](COCC)N(C)C(=O)C[C@@H](C(=O)N(C)CC)N(C)C(=O)[C@H](C2CCCC2)N(C)C(=O)C2(CC(C)(C)C2)NC(=O)[C@@H]2C[C@H](C)CN2C(=O)[C@H](CCc2cc(F)c(C(F)(F)F)c(F)c2)NC(=O)CN(C)C(=O)[C@H](Cc2ccc(C)cc2)N2CC/C=C\C[C@@H](C2=O)N(C)C(=O)CN(C)C1=O [PP2426]	0.31	48	AA (a compound having 20 or more is denoted as AA)	A (a compound having 10 or more and less than 20 is denoted as A)
CCOC[C@H]1C(=O)N[C@@H]([C@@H](C)CC)C(=O)N2CCC[C@H]2C(=O)N(C)[C@H]2C/C=C\CCN(C2=O)[C@@H](Cc2ccc(C)cc2)C(=O)N(C)CC(=O)N[C@@H](CCc2ccc(C(F)(F)F)c(OC)c2)C(=O)N2C[C@@H](C)C[C@H]2C(=O)NC2(CC(C)(C)C2)C(=O)N(C)[C@@H](C2CCCC2)C(=O)N(C)[C@H](C(=O)N(C)CC)CC(=O)N1C [PP2427]	0.7	36.6	AA (a compound having 20 or more is denoted as AA)	A (a compound having 10 or more and less than 20 is denoted as A)
CCOC[C@H]1C(=O)N[C@@H]([C@@H](C)CC)C(=O)N2CCC[C@H]2C(=O)N(C)[C@H]2C/C=C\CCN(C2=O)[C@@H](Cc2ccc(C)cc2)C(=O)N(C)CC(=O)N[C@@H](CCc2cc(F)c(C(F)(F)F)c(F)c2)C(=O)N2C[C@H](OCC)C[C@H]2C(=O)NC2(CC(C)(C)C2)C(=O)N(C)[C@@H](C2CCCC2)C(=O)N(C)[C@H](C(=O)N(C)CC)CC(=O)N1C [PP2428]	0.62	4.8	A (a compound having 10 or more and less than 20 is denoted as A)	A (a compound having 10 or more and less than 20 is denoted as A)
CCCOC[C@H]1C(=O)N[C@@H]([C@@H](C)CC)C(=O)N2CCC[C@H]2C(=O)N(C)[C@H]2C/C=C\CCN(C2=O)[C@@H](Cc2ccc(C)cc2)C(=O)N(C)CC(=O)N[C@@H](CCc2ccc(C(F)(F)F)c(OC)c2)C(=O)N2C[C@@H](C)C[C@H]2C(=O)NC2(CC(C)(C)C2)C(=O)N(C)[C@@H](C2CCCC2)C(=O)N(C)[C@H](C(=O)N(C)CC)CC(=O)N1C [PP2429]	4.5	8.3	A (a compound having 10 or more and less than 20 is denoted as A)	B (a compound having 3 or more and less than 10 is denoted as B)
CCCOC[C@H]1C(=O)N[C@@H]([C@@H](C)CC)C(=O)N2CCC[C@H]2C(=O)N(C)[C@H]2C/C=C\CCN(C2=O)[C@@H](Cc2ccc(C)cc2)C(=O)N(C)CC(=O)N[C@@H](CCc2cc(F)c(C(F)(F)F)c(F)c2)C(=O)N2C[C@H](C)C[C@H]2C(=O)NC2(CC(C)(C)C2)C(=O)N(C)[C@@H](C2CCCC2)C(=O)N(C)[C@H](C(=O)N(C)CC)CC(=O)N1C [PP2430]	1.4	33.2	AA (a compound having 20 or more is denoted as AA)	A (a compound having 10 or more and less than 20 is denoted as A)

More lines, main results first:

Kd [1] [nM]	IC50 [4] [nM]	SMILES	NRAS/KRAS (ratio of KD value for NRAS to KD value for KRAS) [2]	HRAS/KRAS (ratio of KD value for HRAS to KD value for KRAS) [3]
2.3	79.5	CCCOC[C@H]1C(=O)N[C@@H]([C@@H](C)OCC)C(=O)N2CCC[C@H]2C(=O)N(C)[C@H]2C/C=C\CCN(C2=O)[C@@H](Cc2ccc(C)cc2)C(=O)N(C)CC(=O)N[C@@H](CCc2ccc(C(F)(F)F)c(OC)c2)C(=O)N2C[C@@H](C)C[C@H]2C(=O)NC2(CC(C)(C)C2)C(=O)N(C)[C@@H](C2CCCC2)C(=O)N(C)[C@H](C(=O)N(C)CC)CC(=O)N1C [PP2431]	A (a compound having 10 or more and less than 20 is denoted as A)	A (a compound having 10 or more and less than 20 is denoted as A)
1.4	138	CCCOC[C@H]1C(=O)N[C@@H]([C@@H](C)OCC)C(=O)N2CCC[C@H]2C(=O)N(C)[C@H]2C/C=C\CCN(C2=O)[C@@H](Cc2ccc(C)cc2)C(=O)N(C)CC(=O)N[C@@H](CCc2cc(F)c(C(F)(F)F)c(F)c2)C(=O)N2C[C@H](OCC)C[C@H]2C(=O)NC2(CC(C)(C)C2)C(=O)N(C)[C@@H](C2CCCC2)C(=O)N(C)[C@H](C(=O)N(C)CC)CC(=O)N1C [PP2432]	A (a compound having 10 or more and less than 20 is denoted as A)	A (a compound having 10 or more and less than 20 is denoted as A)
2.1	120	CCOC[C@H]1C(=O)N[C@@H]([C@@H](C)OCC)C(=O)N2CCC[C@H]2C(=O)N(C)[C@H]2C/C=C\CCN(C2=O)[C@@H](Cc2ccc(C)cc2)C(=O)N(C)CC(=O)N[C@@H](CCc2ccc(C(F)(F)F)c(OC)c2)C(=O)N2C[C@@H](C)C[C@H]2C(=O)NC2(CC(C)(C)C2)C(=O)N(C)[C@@H](C2CCCC2)C(=O)N(C)[C@H](C(=O)N(C)CC)CC(=O)N1C [PP2433]	AA (a compound having 20 or more is denoted as AA)	A (a compound having 10 or more and less than 20 is denoted as A)
1.6	126	CCCO[C@H](C)[C@@H]1NC(=O)[C@H](COCC)N(C)C(=O)C[C@@H](C(=O)N(C)CC)N(C)C(=O)[C@H](C2CCCC2)N(C)C(=O)C2(CC(C)(C)C2)NC(=O)[C@@H]2C[C@@H](OCC)CN2C(=O)[C@H](CCc2cc(F)c(C(F)(F)F)c(F)c2)NC(=O)CN(C)C(=O)[C@H](Cc2ccc(C)cc2)N2CC/C=C\C[C@@H](C2=O)N(C)C(=O)[C@@H]2CCCN2C1=O [PP2436]	A (a compound having 10 or more and less than 20 is denoted as A)	A (a compound having 10 or more and less than 20 is denoted as A)
0.12	18.8	CC[C@H](C)[C@@H]1NC(=O)[C@H](COC)N(C)C(=O)C[C@@H](C(=O)N(C)CC)N(C)C(=O)[C@H](C2CCCC2)N(C)C(=O)C2(CC(C)(C)C2)NC(=O)[C@@H]2C[C@H](C)CN2C(=O)[C@H](CCc2cc(F)c(C(F)(F)F)c(F)c2)NC(=O)CN(C)C(=O)[C@H](Cc2ccc(C)cc2)N2CC/C=C\C[C@@H](C2=O)N(C)C(=O)CN(C)C1=O [PP2437]	A (a compound having 10 or more and less than 20 is denoted as A)	A (a compound having 10 or more and less than 20 is denoted as A)
